Results taken from ChEMBL document CHEMBL5247584, “Design, synthesis and evaluation of fused hybrids with acetylcholinesterase inhibiting and Nrf2 activating functions for Alzheimer's disease” (Eur J Med Chem, 2022).
Calls of active or inactive are those of the source. The rule behind the calls is not given here.

B1: Acetylcholinesterase (Homo sapiens), P22303 (protein)
chain: MRPPQCLLHTPSLASPLLLLLLWLLGGGVGAEGREDAELLVTVRGGRLRGIRLKTPGGPVSAFLGIPFAEPPMGPRRFLPPEPKQPWSGVVDATTFQSVCYQYVDTLYPGFEGTEMWNPNRELSEDCLYLNVWTPYPRPTSPTPVLVWIYGGGFYSGASSLDVYDGRFLVQAERTVLVSMNYRVGAFGFLALPGSREAPGNVGLLDQRLALQWVQENVAAFGGDPTSVTLFGESAGAASVGMHLLSPPSRGLFHRAVLQSGAPNGPWATVGMGEARRRATQLAHLVGCPPGGTGGNDTELVACLRTRPAQVLVNHEWHVLPQESVFRFSFVPVVDGDFLSDTPEALINAGDFHGLQVLVGVVKDEGSYFLVYGAPGFSKDNESLISRAEFLAGVRVGVPQVSDLAAEAVVLHYTDWLHPEDPARLREALSDVVGDHNVVCPVAQLAGRLAAQGARVYAYVFEHRASTLSWPLWMGVPHGYEIEFIFGIPLDPSRNYTAEEKIFAQRLMRYWANFARTGDPNEPRDPKAPQWPPYTAGAQQYVSLDLRPLEVRRGLRAQACAFWNRFLPKLLSATDTLDEAERQWKAEFHRWSSYMVHWKNQFDHYSKQDRCSDL

What was measured:
Acetylcholinesterase [1] = target: Acetylcholinesterase (Electrophorus electricus, UniProt O42275); experiment: Inhibition of electric eel AChE using ATC and BTC iodide as substrate preincubated for 5 mins followed by substrate addition and measured after 2 mins by DTNB reagent based assay
Cholinesterase = Cholinesterase (Equus caballus, UniProt P81908); experiment: Inhibition of equine serum BuChE using ATC and BTC iodide as substrate preincubated for 5 mins followed by substrate addition and measured after 2 mins by DTNB reagent based assay
HepG2-ARE-C8 [2] = experiment: Cytotoxicity against human HepG2-ARE-C8 cells assessed as reduction in cell viability at 5 and 20 uM measured for 24 hrs by MTT assay; assay type: functional, cell-based
Acetylcholinesterase [3] = target: Acetylcholinesterase (Homo sapiens, UniProt P22303); experiment: Inhibition of human AChE using ATC and BTC iodide as substrate preincubated for 5 mins followed by substrate addition and measured after 2 mins by DTNB reagent based assay
HepG2-ARE-C8 [4] = experiment: Activation of Nrf2-ARE pathway in human HepG2-ARE-C8 cells at 20 uM measured for 24 hrs by ARE-luciferase assay; assay type: cell-based; settings: filed as activator
Mus musculus [5] = experiment: Cognitive enhancing effect in amyloid beta (1 to 42)-induced ICR mouse model assessed as increase in ACh level at 20 mg/kg […] in presence of donepezil by ELISA; assay type: functional, organism-based
Mus musculus [6] = experiment: Antialzheimer activity against Abeta1-42-induced cognitive impairment ICR mouse model assessed as increase in arrival time at 10 mg/kg, IG administered for 3 to 14 days and measured after 9 to 14 days in presence of donepezil by Morris water maze test; assay type: functional, organism-based; settings: time 9-14 day
Mus musculus [7] = experiment: Antialzheimer activity against Abeta1-42-induced cognitive impairment ICR mouse model assessed as increase in distance to reach target at 10 mg/kg, IG administered for 3 to 14 days and measured after 9 to 14 days in presence of donepezil by Morris water maze test; assay type: functional, organism-based; settings: time 9-14 day
Mus musculus [8] = experiment: Antialzheimer activity against Abeta1-42-induced cognitive impairment ICR mouse model assessed as confuse escape tracks at 10 mg/kg, IG administered for 3 to 14 days and measured after 9 to 14 days in presence of donepezil by Morris water maze test; assay type: functional, organism-based; settings: time 9-14 day
Mus musculus [9] = experiment: Antialzheimer activity against Abeta1-42-induced cognitive impairment ICR mouse model assessed as increase in escape latency at 10 mg/kg, IG administered for 3 to 14 days and measured after 9 to 14 days in presence of donepezil by Morris water maze test; assay type: functional, organism-based; settings: time 9-14 day
[10] = compound: Cc1ccc(-c2noc(-c3cccc(OCC4CCN(Cc5cccc(F)c5)CC4)c3)n2)cn1; experiment: Non-competitive inhibition of human AChE assessed as decrease in substrate Vmax with constant Km by Lineweaver-Burk plot analysis

Chain of Acetylcholinesterase (Electrophorus electricus, UniProt O42275) (O42275 whole entry): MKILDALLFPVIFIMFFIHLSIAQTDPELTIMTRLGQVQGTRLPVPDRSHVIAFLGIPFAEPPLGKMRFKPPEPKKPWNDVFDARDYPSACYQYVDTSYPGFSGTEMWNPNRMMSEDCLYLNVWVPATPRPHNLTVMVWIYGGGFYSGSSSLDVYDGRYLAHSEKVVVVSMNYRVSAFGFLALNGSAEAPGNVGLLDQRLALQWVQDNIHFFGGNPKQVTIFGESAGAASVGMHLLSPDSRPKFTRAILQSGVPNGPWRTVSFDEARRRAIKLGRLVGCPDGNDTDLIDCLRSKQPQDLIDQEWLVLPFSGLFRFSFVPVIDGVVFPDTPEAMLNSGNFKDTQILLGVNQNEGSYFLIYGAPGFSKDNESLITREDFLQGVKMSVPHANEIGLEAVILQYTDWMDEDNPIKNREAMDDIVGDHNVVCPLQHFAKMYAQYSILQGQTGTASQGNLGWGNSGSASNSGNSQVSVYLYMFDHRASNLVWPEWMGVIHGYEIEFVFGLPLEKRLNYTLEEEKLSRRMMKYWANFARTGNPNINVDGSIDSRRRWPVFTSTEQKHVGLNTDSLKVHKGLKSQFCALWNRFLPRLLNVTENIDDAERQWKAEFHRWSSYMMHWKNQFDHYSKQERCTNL
Chain of Cholinesterase (P81908 whole entry): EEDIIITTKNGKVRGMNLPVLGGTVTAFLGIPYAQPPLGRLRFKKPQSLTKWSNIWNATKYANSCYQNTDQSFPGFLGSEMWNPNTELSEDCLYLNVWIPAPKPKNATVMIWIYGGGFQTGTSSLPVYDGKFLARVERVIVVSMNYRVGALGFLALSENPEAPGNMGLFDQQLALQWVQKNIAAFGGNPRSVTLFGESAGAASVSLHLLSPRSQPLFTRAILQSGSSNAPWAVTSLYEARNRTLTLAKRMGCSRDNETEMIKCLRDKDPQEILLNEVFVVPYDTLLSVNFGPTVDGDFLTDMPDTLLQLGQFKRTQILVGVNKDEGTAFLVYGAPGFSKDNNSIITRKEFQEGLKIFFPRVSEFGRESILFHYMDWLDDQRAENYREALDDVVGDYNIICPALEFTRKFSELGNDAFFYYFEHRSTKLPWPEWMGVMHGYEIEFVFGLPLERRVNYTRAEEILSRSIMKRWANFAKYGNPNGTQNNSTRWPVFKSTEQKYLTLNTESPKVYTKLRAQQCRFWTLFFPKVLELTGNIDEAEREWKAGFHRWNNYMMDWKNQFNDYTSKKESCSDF

Molecule	IC50 (Acetylcholinesterase [1])	IC50 (Cholinesterase)	Activity (HepG2-ARE-C8 [2])	other results
Cc1ccc(-c2noc(-c3cccc(OCC4CCN(Cc5ccncc5)CC4)c3)n2)cn1	16.8 µM	> 100 µM	inactive	
Cc1ccc(-c2noc(-c3cccc(OCC4CCN(C(=O)c5ccccc5)CC4)c3)n2)cn1	59.4 µM	> 100 µM	inactive	
Cc1ccc(-c2noc(-c3cccc(OCC4CCN(Cc5cccnc5)CC4)c3)n2)cn1	1.28 µM	3.93 µM	inactive	
Cc1ccc(-c2noc(-c3cccc(OCC4CCN(Cc5ccc(C)c(C)c5)CC4)c3)n2)cn1	5.64 µM	> 100 µM	inactive	
COc1ccc(CN2CCC(COc3cccc(-c4nc(-c5ccc(C)nc5)no4)c3)CC2)cc1	> 100 µM	> 100 µM	inactive	
Cc1ccc(-c2noc(-c3cccc(OCC4CCN(Cc5ccc(F)c(F)c5)CC4)c3)n2)cn1	13.9 µM	1.66 µM	inactive	
Cc1ccc(-c2noc(-c3cccc(OCC4CCN(Cc5ccccc5F)CC4)c3)n2)cn1	0.1 µM	15.5 µM	inactive	IC50 (Acetylcholinesterase [3]): 0.29 µM
Cc1ccc(CN2CCCC(COc3cccc(-c4nc(-c5ccc(C)nc5)no4)c3)C2)cc1 (configuration not stated)	5.39 µM	> 100 µM	inactive	
Cc1ccc(-c2noc(-c3cccc(OCC4CCCN(C(=O)c5ccccc5)C4)c3)n2)cn1 (configuration not stated)	15.9 µM	13.8 µM	inactive	Activity (HepG2-ARE-C8 [4]): Active
Cc1ccc(-c2noc(-c3cccc(OCC4CCN(Cc5ccc(F)cc5)CC4)c3)n2)cn1	0.56 µM	1.36 µM	inactive	IC50 (Acetylcholinesterase [3]): 2.99 µM
Cc1ccc(-c2noc(-c3cccc(OCC4CCCN(C(=O)c5ccc(F)cc5)C4)c3)n2)cn1 (configuration not stated)	4.37 µM	5.78 µM	inactive	
Cc1ccc(-c2noc(-c3cccc(OCC4CCCN(Cc5ccc(F)cc5)C4)c3)n2)cn1 (configuration not stated)	> 100 µM	4.28 µM	inactive	
Cc1ccc(-c2noc(-c3cccc(OCC4CCN(Cc5ccc(Cl)cc5)CC4)c3)n2)cn1	> 100 µM	> 100 µM	inactive	
Cc1ccc(-c2noc(-c3cccc(OCC4CCN(Cc5ccc(C(F)(F)F)cc5)CC4)c3)n2)cn1	> 100 µM	> 100 µM	inactive	Activity (HepG2-ARE-C8 [4]): Active
Cc1ccc(-c2noc(-c3cccc(OCC4CCN(Cc5ccccc5Cl)CC4)c3)n2)cn1	0.55 µM	> 100 µM	inactive	IC50 (Acetylcholinesterase [3]): 0.57 µM
Cc1ccc(-c2noc(-c3cccc(OCC4CCCN(Cc5ccccc5)C4)c3)n2)cn1 (configuration not stated)	6.46 µM	2.78 µM	inactive	
Cc1ccc(-c2noc(-c3ccc(F)c(F)c3)n2)cn1				Activity (Mus musculus [5]): Active; Activity (Mus musculus [6]): Active; Activity (Mus musculus [7]): Active; Activity (Mus musculus [8]): Active; Activity (Mus musculus [9]): Active
Cc1ccc(CN2CCC(COc3cccc(-c4nc(-c5ccc(C)nc5)no4)c3)CC2)cc1	> 100 µM	6.34 µM	inactive	
Cc1ccc(-c2noc(-c3cccc(OCC4CCN(Cc5ccc(Br)cc5)CC4)c3)n2)cn1	> 100 µM	> 100 µM	inactive	
Cc1ccc(-c2noc(-c3cccc(OCC4CCCN(Cc5ccccc5F)C4)c3)n2)cn1 (configuration not stated)	8.14 µM	17.6 µM	inactive	
Cc1ccc(-c2noc(-c3cccc(OCC4CCN(Cc5ccc(Br)o5)CC4)c3)n2)cn1	3.18 µM	> 100 µM	inactive	
Cc1ccc(-c2noc(-c3cccc(OCC4CCN(Cc5ccc(C(C)(C)C)cc5)CC4)c3)n2)cn1	> 100 µM	> 100 µM	inactive	Activity (HepG2-ARE-C8 [4]): Active
Cc1ccc(-c2noc(-c3cccc(OCC4CCN(Cc5ccc(Cl)o5)CC4)c3)n2)cn1	2 µM	> 100 µM	inactive	
Cc1ccc(-c2noc(-c3cccc(OCC4CCN(Cc5ccccn5)CC4)c3)n2)cn1	1.92 µM	5.03 µM	inactive	
Cc1ccc(-c2noc(-c3cccc(OCC4CCN(C(=O)c5ccc(F)cc5)CC4)c3)n2)cn1	> 100 µM	> 100 µM	inactive	
Cc1ccc(-c2noc(-c3cccc(OCC4CCN(Cc5cccc(Cl)c5)CC4)c3)n2)cn1	2.29 µM	> 100 µM	inactive	
Cc1ccc(-c2noc(-c3cccc(OCC4CCN(Cc5ccccc5)CC4)c3)n2)cn1	0.29 µM	5.05 µM	inactive	IC50 (Acetylcholinesterase [3]): 0.74 µM
Cc1ccc(-c2noc(-c3cccc(OCC4CCN(Cc5ccc(C#N)cc5)CC4)c3)n2)cn1	71.4 µM	> 100 µM	inactive	
Cc1ccc(-c2noc(-c3cccc(OCC4CCN(Cc5ccco5)CC4)c3)n2)cn1	2.53 µM	> 100 µM	inactive	
B1				Km [10]: 0.233 µM
